For orientation: IC50 means the concentration needed to halve the response being measured.

The values that follow come from US12673944B2, “Compounds having inhibitory activity against glucosylceramide synthase or pharmaceutically acceptable salt thereof, processes for preparing the same, and pharmaceutical compositions comprising the same” (YUHAN CORPORATION, priority 2019, dated 2026).

The target of test [1] is T1, glucosylceramide synthase (GCS) (Homo sapiens, UniProt Q16739).
T1 construct: The obtained supernatant was used; host or cells: A549 cells (lysate supernatant after sonication)
T1 sequence (Q16739 1-394): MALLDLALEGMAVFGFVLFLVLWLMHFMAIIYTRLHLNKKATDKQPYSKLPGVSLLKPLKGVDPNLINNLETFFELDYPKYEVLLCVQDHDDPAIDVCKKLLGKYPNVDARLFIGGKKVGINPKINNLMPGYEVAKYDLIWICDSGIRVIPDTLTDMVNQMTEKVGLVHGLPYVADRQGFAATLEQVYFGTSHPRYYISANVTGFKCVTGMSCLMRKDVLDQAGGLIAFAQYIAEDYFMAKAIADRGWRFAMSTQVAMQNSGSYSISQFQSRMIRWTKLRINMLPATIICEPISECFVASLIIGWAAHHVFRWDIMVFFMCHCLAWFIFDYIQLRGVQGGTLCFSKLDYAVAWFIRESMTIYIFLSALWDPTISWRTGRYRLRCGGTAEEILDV
Nature of the test: GCS enzyme inhibition assay (A549 cell lysate, NBD C6-ceramide, HPLC fluorescence). The note with it: inhibitory activity against GCS, 37° C., 90 minutes. In kind it is biochemical. A digest of the protocol: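 A549 cell lysate (50 mM HEPES pH 7.3) served as GCS source; reactions ran 90 min at 37° C, were stopped with chloroform/methanol and lipids extracted. Activity taken as GlcCer/(Cer+GlcCer) peak area, normalised between DMSO and ibiglustat controls.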

Test [2] relates to GM1 production in Jurkat cells. Nature of the test: cells. In kind it is cell-based.

Where two headings read alike, the source gives them in different places.

Turning to `CC1(C)COc2cc(-c3ccc4c(c3)OCCCO4)ccc2C1NC(=O)O[C@@H]1CN2CCC1CC2` (stereo partly drawn) [Example 190, (S)-quinuclidin-3-yl (7-(3,4-dihydro-2H-benzo[b][1,4]dioxepin-7-yl)-3,3-dimethylchroman-4-yl)carbamate], the IC50 in test [1] worked out at 0.29 nM; in test [2] (Homo sapiens, Jurkat, 72 h), 0.03 nM.

As to `CC1(C)COc2cc(-c3ccc4nsnc4c3)ccc2C1NC(=O)O[C@@H]1CN2CCC1CC2` (stereo partly drawn) [Example 191, (S)-quinuclidin-3-yl (7-(benzo[c][1,2,5]thiadiazol-5-yl)-3,3-dimethylchroman-4-yl)carbamate], the 50% inhibitory concentration (IC50) in test [1] worked out at 0.63 nM; in test [2] (Homo sapiens, Jurkat, 72 h), 0.31 nM.

`CC1(C)COc2cc(-c3cncc4ccccc34)ccc2C1NC(=O)O[C@@H]1CN2CCC1CC2` (stereo partly drawn) [Example 192, (S)-quinuclidin-3-yl (7-(isoquinolin-4-yl)-3,3-dimethylchroman-4-yl)carbamate]: the results for the IC50 in test [1] and in test [2] were 0.92 nM and 1.35 nM, respectively.

In the case of `CC(C)(C)c1ccc(-c2ccc3c(c2)OCC(C)(C)C3NC(=O)O[C@@H]2CN3CCC2CC3)cc1` (stereo partly drawn) [Example 193, (S)-quinuclidin-3-yl (7-(4-(tert-butyl)phenyl)-3,3-dimethylchroman-4-yl)carbamate], the IC50 in test [1] was determined as 0.51 nM; in test [2] (Homo sapiens, Jurkat, 72 h), 0.46 nM.

As to `Cc1cc(-c2ccc3c(c2)OCC(C)(C)C3NC(=O)O[C@@H]2CN3CCC2CC3)ccc1N1CCOCC1` (stereo partly drawn) [Example 194, (S)-quinuclidin-3-yl (3,3-dimethyl-7-(3-methyl-4-morpholinophenyl)chroman-4-yl)carbamate], the IC50 in test [1] was 0.6 nM; in test [2] (Homo sapiens, Jurkat, 72 h), 1.81 nM.

`CC1(C)COc2cc(-c3ccc(Cl)c(Cl)c3)ccc2C1NC(=O)O[C@@H]1CN2CCC1CC2` (stereo partly drawn) [Example 195, (S)-quinuclidin-3-yl (7-(3,4-dichlorophenyl)-3,3-dimethylchroman-4-yl)carbamate]: the IC50 was determined as 1.14 nM in test [1] and 1.39 nM in test [2] (Homo sapiens, Jurkat, 72 h).

For `Cn1ncc2ccc(-c3ccc4c(c3)OCC(C)(C)C4NC(=O)O[C@@H]3CN4CCC3CC4)cc21` (stereo partly drawn) [Example 196, (S)-quinuclidin-3-yl (3,3-dimethyl-7-(1-methyl-1H-indazol-6-yl)chroman-4-yl)carbamate], the IC50 in test [1] came out at 1.25 nM; in test [2] (Homo sapiens, Jurkat, 72 h), 6.13 nM.

For `CC1(C)COc2cc(-c3ccc4cc[nH]c4c3)ccc2C1NC(=O)O[C@@H]1CN2CCC1CC2` (stereo partly drawn) [Example 197, (S)-quinuclidin-3-yl (7-(1H-indol-6-yl)-3,3-dimethylchroman-4-yl)carbamate], the concentration for half-maximal inhibition (IC50) in test [1] is 0.9 nM; in test [2] (Homo sapiens, Jurkat, 72 h) it was 1.99 nM.

As to `CN1CCOc2cc(-c3ccc4c(c3)OCC(C)(C)C4NC(=O)O[C@@H]3CN4CCC3CC4)ccc21` (stereo partly drawn) [Example 198, (S)-quinuclidin-3-yl (3,3-dimethyl-7-(4-methyl-3,4-dihydro-2H-benzo[b][1,4]oxazin-7-yl)chroman-4-yl)carbamate], the IC50 in test [1] came out at 0.66 nM; in test [2] (Homo sapiens, Jurkat, 72 h) it was 1.83 nM.

With `Cc1ccc(-c2ccc3c(c2)OCC(C)(C)C3NC(=O)O[C@@H]2CN3CCC2CC3)cc1C#N` (stereo partly drawn) [Example 199, (S)-quinuclidin-3-yl (7-(3-cyano-4-methylphenyl)-3,3-dimethylchroman-4-yl)carbamate], the IC50 stood at 0.51 nM in test [1] and 3.63 nM in test [2] (Homo sapiens, Jurkat, 72 h).

For `CC1(C)COc2cc(-c3cc(F)c(F)cc3F)ccc2C1NC(=O)O[C@@H]1CN2CCC1CC2` (stereo partly drawn) [Example 200, (S)-quinuclidin-3-yl (3,3-dimethyl-7-(2,4,5-trifluorophenyl)chroman-4-yl)carbamate], the IC50 came out at 0.49 nM in test [1] and 1.94 nM in test [2] (Homo sapiens, Jurkat, 72 h).

Take `CC1(C)COc2cc(-c3ccc(OC(F)(F)F)cc3)ccc2C1NC(=O)O[C@@H]1CN2CCC1CC2` (stereo partly drawn) [Example 201, (S)-quinuclidin-3-yl (3,3-dimethyl-7-(4-(trifluoromethoxy)phenyl)chroman-4-yl)carbamate]: the IC50 in test [1] came to 0.41 nM; in test [2] (Homo sapiens, Jurkat, 72 h), 1.12 nM.

Take `CC1(C)COc2cc(-c3ccc(C4CCOCC4)cc3)ccc2C1NC(=O)O[C@@H]1CN2CCC1CC2` (stereo partly drawn) [Example 202, (S)-quinuclidin-3-yl (3,3-dimethyl-7-(4-(tetrahydro-2H-pyran-4-yl)phenyl)chroman-4-yl)carbamate]: the IC50 is 0.28 nM in test [1] and 0.47 nM in test [2] (Homo sapiens, Jurkat, 72 h).

With `COc1cc(-c2ccc3c(c2)OCC(C)(C)C3NC(=O)O[C@@H]2CN3CCC2CC3)ccn1` (stereo partly drawn) [Example 203, (S)-quinuclidin-3-yl (7-(2-methoxypyridin-4-yl)-3,3-dimethylchroman-4-yl)carbamate], the half-inhibitory concentration (IC50) in test [1] was 0.72 nM; in test [2] (Homo sapiens, Jurkat, 72 h) it was 8.03 nM.

For `CC1(C)COc2cc(-c3ccc(N4CCOCC4)c(Cl)c3)ccc2C1NC(=O)O[C@@H]1CN2CCC1CC2` (stereo partly drawn) [Example 205, (S)-quinuclidin-3-yl (7-(3-chloro-4-morpholinophenyl)-3,3-dimethylchroman-4-yl)carbamate], the concentration for half-maximal inhibition (IC50) in test [1] came to 0.65 nM; in test [2] (Homo sapiens, Jurkat, 72 h), 0.25 nM.

Regarding `COc1ccc(-c2ccc3c(c2)OCC(C)(C)C3NC(=O)O[C@@H]2CN3CCC2CC3)cc1` (stereo partly drawn) [Example 206, (S)-quinuclidin-3-yl (7-(4-methoxyphenyl)-3,3-dimethylchroman-4-yl)carbamate], the IC50 was found to be 0.5 nM in test [1] and 0.01 nM in test [2] (Homo sapiens, Jurkat, 72 h).

Take `COc1cncc(-c2ccc3c(c2)OCC(C)(C)C3NC(=O)O[C@@H]2CN3CCC2CC3)c1` (stereo partly drawn) [Example 207, (S)-quinuclidin-3-yl (7-(5-methoxypyridin-3-yl)-3,3-dimethylchroman-4-yl)carbamate]: the IC50 was determined as 1.12 nM in test [1] and 1.06 nM in test [2] (Homo sapiens, Jurkat, 72 h).

As to `CC1(C)COc2cc(-c3cc4ccccc4s3)ccc2C1NC(=O)O[C@@H]1CN2CCC1CC2` (stereo partly drawn) [Example 208, (S)-quinuclidin-3-yl (7-(benzo[b]thiophen-2-yl)-3,3-dimethylchroman-4-yl)carbamate], the half-inhibitory concentration (IC50) was 1.41 nM in test [1] and 2.47 nM in test [2] (Homo sapiens, Jurkat, 72 h).

On to `CCOc1ccc(-c2ccc3c(c2)OCC(C)(C)C3NC(=O)O[C@@H]2CN3CCC2CC3)cc1` (stereo partly drawn) [Example 209, (S)-quinuclidin-3-yl (7-(4-ethoxyphenyl)-3,3-dimethylchroman-4-yl)carbamate], for which the IC50 in test [1] stood at 0.34 nM; in test [2] (Homo sapiens, Jurkat, 72 h) it was 0.01 nM.

As for `COc1ccc(-c2ccc3c(c2)OCC(C)(C)C3NC(=O)O[C@@H]2CN3CCC2CC3)cc1C(F)(F)F` (stereo partly drawn) [Example 210, (S)-quinuclidin-3-yl (7-(4-methoxy-3-(trifluoromethyl)phenyl)-3,3-dimethylchroman-4-yl)carbamate], the IC50 in test [1] worked out at 1.57 nM; in test [2], 18 nM.

As for `CC1(C)COc2cc(-c3ccc(C(F)(F)F)cc3)ccc2C1NC(=O)O[C@@H]1CN2CCC1CC2` (stereo partly drawn) [Example 211, (S)-quinuclidin-3-yl (3,3-dimethyl-7-(4-(trifluoromethyl)phenyl)chroman-4-yl)carbamate], the IC50 in test [1] amounted to 0.71 nM; in test [2] (Homo sapiens, Jurkat, 72 h) it was 1.41 nM.

As to `CC1(C)COc2cc(-c3cccc4[nH]ncc34)ccc2C1NC(=O)O[C@@H]1CN2CCC1CC2` (stereo partly drawn) [Example 212, (S)-quinuclidin-3-yl (7-(1H-indazol-4-yl)-3,3-dimethylchroman-4-yl)carbamate], the IC50 came to 0.87 nM in test [1] and 2.45 nM in test [2] (Homo sapiens, Jurkat, 72 h).

In the case of `CC1(C)COc2cc(-c3ccc(Cl)cc3)ccc2C1NC(=O)O[C@@H]1CN2CCC1CC2` (stereo partly drawn) [Example 213, (S)-quinuclidin-3-yl (7-(4-chlorophenyl)-3,3-dimethylchroman-4-yl)carbamate], the IC50 was found to be 0.78 nM in test [1] and 0.03 nM in test [2] (Homo sapiens, Jurkat, 72 h).

As to `CC1(C)COc2cc(-c3ccc(F)cc3)ccc2C1NC(=O)O[C@@H]1CN2CCC1CC2` (stereo partly drawn) [Example 214, (S)-quinuclidin-3-yl (7-(4-fluorophenyl)-3,3-dimethylchroman-4-yl)carbamate], the IC50 amounted to 0.55 nM in test [1] and 1.81 nM in test [2] (Homo sapiens, Jurkat, 72 h).

Consider `COc1ncc(-c2ccc3c(c2)OCC(C)(C)C3NC(=O)O[C@@H]2CN3CCC2CC3)cc1Cl` (stereo partly drawn) [Example 215, (S)-quinuclidin-3-yl (7-(5-chloro-6-methoxypyridin-3-yl)-3,3-dimethylchroman-4-yl)carbamate], for which the IC50 in test [1] stood at 1.57 nM; in test [2] (Homo sapiens, Jurkat, 72 h), 2.51 nM.

Consider `CN1C(=O)COc2ccc(-c3ccc4c(c3)OCC(C)(C)C4NC(=O)O[C@@H]3CN4CCC3CC4)cc21` (stereo partly drawn) [Example 216, (S)-quinuclidin-3-yl (3,3-dimethyl-7-(4-methyl-3-oxo-3,4-dihydro-2H-benzo[b][1,4]oxazin-6-yl)chroman-4-yl)carbamate], for which the IC50 is 1.51 nM in test [1] and 8.58 nM in test [2] (Homo sapiens, Jurkat, 72 h).

Take `CC1(C)COc2cc(-c3ccc(F)c(F)c3F)ccc2C1NC(=O)O[C@@H]1CN2CCC1CC2` (stereo partly drawn) [Example 217, (S)-quinuclidin-3-yl (3,3-dimethyl-7-(2,3,4-trifluorophenyl)chroman-4-yl)carbamate]: the IC50 turned out to be 0.55 nM in test [1] and 7.35 nM in test [2] (Homo sapiens, Jurkat, 72 h).

Consider `CC1(C)COc2cc(-c3ccc(OC(F)F)cc3)ccc2C1NC(=O)O[C@@H]1CN2CCC1CC2` (stereo partly drawn) [Example 218, (S)-quinuclidin-3-yl (7-(4-(difluoromethoxy)phenyl)-3,3-dimethylchroman-4-yl)carbamate], for which the half-maximal inhibitory concentration (IC50) was 0.4 nM in test [1] and 2.69 nM in test [2] (Homo sapiens, Jurkat, 72 h).

Take `CC1(C)COc2cc(-c3cccc4ncccc34)ccc2C1NC(=O)O[C@@H]1CN2CCC1CC2` (stereo partly drawn) [Example 219, (S)-quinuclidin-3-yl (3,3-dimethyl-7-(quinolin-5-yl)chroman-4-yl)carbamate]: the IC50 is 2.26 nM in test [1] and 7.58 nM in test [2] (Homo sapiens, Jurkat, 72 h).
